Results: ChEMBL document CHEMBL1201862, “PubChem BioAssay data set” (2004)
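In this assay, cells in 96-well plates receive the compound at five concentrations for 48 hours. Endpoints are linearly interpolated between the surrounding concentrations. The concentration for 50% growth inhibition is given as GI50.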 Active and inactive are the calls of the source. Cut-off read from the data, not from the text of the source: active = GI50 up to about 1.1 µM and inactive = higher.

How the values were obtained:
Assay in all cases: inhibition of tumour cell growth, NCI panel, 48 h
[1] = system: 786-0
[2] = system: A498
[3] = system: A549
[4] = system: ACHN
[5] = system: BT-549
[6] = system: CAKI-1
[7] = system: CCRF-CEM
[8] = system: COLO 205
[9] = system: DU-145
[10] = system: EKVX
[11] = system: HCC 2998
[12] = system: HCT-116
[13] = system: HCT-15
[14] = system: HL-60
[15] = system: HOP-62
[16] = system: HOP-92
[17] = system: HT-29
[18] = system: Hs-578T
[19] = system: IGROV-1
[20] = system: K562
[21] = system: KM12
[22] = system: LOX IMVI
[23] = system: M14
[24] = system: MCF7
[25] = system: MDA-MB-231
[26] = system: MDA-MB-435
[27] = system: MDA-N
[28] = system: MOLT-4
[29] = system: Malme-3M
[30] = system: NCI-H226
[31] = system: NCI-H23
[32] = system: NCI-H460
[33] = system: NCI-H522
[34] = system: NCI/ADR-RES
[35] = system: OVCAR-3
[36] = system: OVCAR-4
[37] = system: OVCAR-5
[38] = system: OVCAR-8
[39] = system: PC-3
[40] = system: RPMI-8226
[41] = system: RXF 393
[42] = system: SF-268
[43] = system: SF-295
[44] = system: SF-539
[45] = system: SK-MEL-28
[46] = system: SK-MEL-2
[47] = system: SK-MEL-5
[48] = system: SK-OV-3
[49] = system: SN12C
[50] = system: SNB-19
[51] = system: SNB-75
[52] = system: SR
[53] = system: SW-620
[54] = system: T47D
[55] = system: TK-10
[56] = system: U-251
[57] = system: UACC-257
[58] = system: UACC-62
[59] = system: UO-31

For C[C@@H](NC(=O)c1ccc(CNC(=O)/C=C/c2cccc(Oc3ccccc3)c2)cc1)c1ccccc1, the GI50 [1] was 13.9 µM (inactive), the GI50 [2] was 31 µM (inactive) and the GI50 [3] was 14 µM (inactive). The GI50 [4] was 12.5 µM (inactive), the GI50 [5] was > 94 µM (inactive) and the GI50 [6] was 14.7 µM (inactive). The GI50 [7] was > 100 µM (inactive), the GI50 [8] was > 100 µM (inactive) and the GI50 [9] was > 100 µM (inactive). For the same molecule, the GI50 [10] was 21.8 µM (inactive), the GI50 [11] was > 100 µM (inactive) and the GI50 [12] was > 69.3 µM (inactive). The GI50 [13] was > 100 µM, the GI50 [14] was > 100 µM (inactive) and the GI50 [15] was 17.9 µM (inactive). The GI50 [16] was 59.7 µM (inactive), the GI50 [17] was 22.6 µM (inactive) and the GI50 [18] was 7.33 µM (inactive). For the same molecule, the GI50 [19] was 48.1 µM (inactive), the GI50 [20] was > 100 µM (inactive) and the GI50 [21] was > 100 µM (inactive). For the same molecule, the GI50 [22] was > 100 µM (inactive), the GI50 [23] was 99.1 µM (inactive) and the GI50 [24] was 97.1 µM (inactive). For the same molecule, the GI50 [25] was > 100 µM (inactive), the GI50 [26] was > 100 µM (inactive) and the GI50 [27] was > 100 µM (inactive). The GI50 [28] was > 100 µM (inactive), the GI50 [29] was > 76.2 µM (inactive) and the GI50 [30] was 28.4 µM (inactive). For the same molecule, the GI50 [31] was > 100 µM (inactive), the GI50 [32] was 34.7 µM (inactive) and the GI50 [33] was > 66.7 µM (inactive). For the same molecule, the GI50 [34] was > 100 µM (inactive), the GI50 [35] was 72.1 µM (inactive) and the GI50 [36] was > 100 µM (inactive). The GI50 [37] was 78.9 µM (inactive), the GI50 [38] was 32.9 µM (inactive) and the GI50 [39] was > 42.4 µM (inactive). The GI50 [40] was > 100 µM (inactive), the GI50 [41] was 2.51 µM (inactive) and the GI50 [42] was 20.8 µM (inactive). For the same molecule, the GI50 [43] was 26.8 µM (inactive), the GI50 [44] was 12.2 µM (inactive) and the GI50 [45] was > 100 µM (inactive). For the same molecule, the GI50 [46] was > 60.1 µM (inactive), the GI50 [47] was 99.8 µM (inactive) and the GI50 [48] was > 93.1 µM (inactive). The GI50 [49] was > 100 µM (inactive), the GI50 [50] was 16.4 µM (inactive) and the GI50 [51] was 6.18 µM (inactive). For the same molecule, the GI50 [52] was > 100 µM (inactive), the GI50 [53] was > 100 µM (inactive) and the GI50 [54] was 27.7 µM (inactive). For the same molecule, the GI50 [55] was 24.9 µM (inactive), the GI50 [56] was 47.4 µM (inactive) and the GI50 [57] was 55.7 µM (inactive). The GI50 [58] was > 82.6 µM (inactive) and the GI50 [59] was 10.7 µM (inactive).
For N#CCCN(CCC#N)c1ccc(/C=C2\SC(=S)NC2=O)cc1Br, the GI50 [1] was 37.8 µM (inactive), the GI50 [2] was 33.3 µM (inactive) and the GI50 [3] was > 100 µM (inactive). For the same molecule, the GI50 [4] was 67.9 µM (inactive), the GI50 [5] was 37.3 µM (inactive) and the GI50 [6] was > 100 µM (inactive). The GI50 [7] was > 100 µM (inactive), the GI50 [8] was > 100 µM (inactive) and the GI50 [9] was > 100 µM (inactive). For the same molecule, the GI50 [10] was 46.9 µM (inactive), the GI50 [11] was > 100 µM (inactive) and the GI50 [12] was > 100 µM (inactive). For the same molecule, the GI50 [13] was > 100 µM, the GI50 [14] was 79.8 µM (inactive) and the GI50 [15] was 15.3 µM (inactive). The GI50 [16] was 50.5 µM (inactive), the GI50 [17] was > 100 µM (inactive) and the GI50 [18] was 0.598 µM (active). The GI50 [19] was 72.1 µM (inactive), the GI50 [20] was > 100 µM (inactive) and the GI50 [21] was 66.7 µM (inactive). The GI50 [22] was 23.1 µM (inactive), the GI50 [23] was > 100 µM (inactive) and the GI50 [24] was > 100 µM (inactive). For the same molecule, the GI50 [25] was 25.9 µM (inactive), the GI50 [26] was > 100 µM (inactive) and the GI50 [27] was > 100 µM (inactive). For the same molecule, the GI50 [28] was > 100 µM (inactive), the GI50 [29] was 16.9 µM (inactive) and the GI50 [30] was > 100 µM (inactive). The GI50 [31] was > 100 µM (inactive), the GI50 [32] was > 100 µM (inactive) and the GI50 [33] was 76 µM (inactive). For the same molecule, the GI50 [34] was > 100 µM (inactive), the GI50 [35] was > 100 µM (inactive) and the GI50 [36] was 85.1 µM (inactive). The GI50 [37] was > 100 µM (inactive), the GI50 [38] was 68.5 µM (inactive) and the GI50 [39] was > 100 µM (inactive). For the same molecule, the GI50 [40] was > 100 µM (inactive), the GI50 [41] was 86.3 µM (inactive) and the GI50 [42] was 20.9 µM (inactive). For the same molecule, the GI50 [43] was 27.9 µM (inactive), the GI50 [44] was > 100 µM (inactive) and the GI50 [45] was > 100 µM (inactive). For the same molecule, the GI50 [46] was > 100 µM (inactive), the GI50 [47] was > 100 µM (inactive) and the GI50 [48] was 28.6 µM (inactive). For the same molecule, the GI50 [49] was > 100 µM (inactive), the GI50 [50] was 23.8 µM (inactive) and the GI50 [51] was 17.8 µM (inactive). For the same molecule, the GI50 [52] was > 100 µM (inactive), the GI50 [53] was > 100 µM (inactive) and the GI50 [54] was > 100 µM (inactive). The GI50 [55] was > 100 µM (inactive), the GI50 [56] was 17.3 µM (inactive) and the GI50 [57] was > 100 µM (inactive). For the same molecule, the GI50 [58] was > 100 µM (inactive) and the GI50 [59] was > 100 µM (inactive).
